This passage reports EC50 results from patent US11098010B2 (priority 2017, dated 2021).

Read-outs that look alike come from different tables or passages of the source.

The subject of the test is HBV rcDNA in HepDE19 cells. In words: HepDE19 assay with bDNA quantitation of HBV rcDNA. Type of test: cell-based, hepatitis B virus (HBV). The note with it: HepDE19 cells, inhibition of rcDNA formation, 7 day incubation, top concentration 25 μM, read-out: DE-19 bDNA EC50.
The mark [1] stands for this setting: Hepatitis B virus, HepDE19, 168 h.

For the compound `CC1(NC(=O)OCc2ccccn2)CCc2c(C(=O)Nc3ccc(F)c(Cl)c3)ccc(F)c21` (stereo not drawn) [Compound 224, O-Pyridin-2-ylmethyl, N-(4-((3-chloro-4-fluorophenyl)carbamoyl)-7-fluoro-1-methyl-2,3-dihydro-1H-inden-1-yl) carbamate], the EC50 was 11000 nM. Still for that read-out and setting: in the case of `CC1(NC(=O)OCc2ccccn2)CCc2c(C(=O)Nc3ccc(F)c(Cl)c3)ccc(F)c21` (stereo not drawn) [Compound 225, O-Pyridin-2-ylmethyl, N-(4-((3-chloro-4-fluorophenyl)carbamoyl)-7-fluoro-1-methyl-2,3-dihydro-1H-inden-1-yl) carbamate] it was 2000 nM. Turning to `O=C(N[C@H]1CCc2c(C(=O)Nc3ccc(F)c(Cl)c3)ccc(F)c21)OC1CC1` [Compound 226, O-cyclopropyl, N—(S)-(4-((3-chloro-4-fluorophenyl)carbamoyl)-7-fluoro-2,3-dihydro-1H-inden-1-yl)carbamate], the EC50 under setting [1] was found to be 240 nM. Same read-out and setting: in the case of `CNS(=O)(=O)N[C@H]1CCc2c(C(=O)Nc3ccc(F)c(Cl)c3)ccc(F)c21` [Compound 227, (S)—N-(3-Chloro-4-fluorophenyl)-7-fluoro-1-((N-methylsulfamoyl)amino)-2,3-dihydro-1H-indene-4-carboxamide] it was 430 nM; in that of `O=C(Nc1ccc(F)c(Cl)c1)c1ccc(F)c2c1CC[C@@H]2NS(=O)(=O)N1CCOCC1` [Compound 228, (S)—N-(3-Chloro-4-fluorophenyl)-7-fluoro-1-(morpholine-4-sulfonamido)-2,3-dihydro-1H-indene-4-carboxamide], 200 nM. With `O=C(N[C@H]1CCc2c(C(=O)Nc3ccc(F)c(Cl)c3)cccc21)OC1CC1` [Compound 229, O-cyclopropyl, N-(S)-(4-((3-chloro-4-fluorophenyl)carbamoyl)-2,3-dihydro-1H-inden-1-yl) carbamate], the EC50 stood at 360 nM. As to `CNS(=O)(=O)N[C@H]1CCc2c(C(=O)Nc3ccc(F)c(Cl)c3)cccc21` [Compound 230, (S)-N-(3-chloro-4-fluorophenyl)-1-((N-methylsulfamoyl)amino)-2,3-dihydro-1H-indene-4-carboxamide], the EC50 under setting [1] worked out at 360 nM. With `O=C(N[C@H]1CCc2c(C(=O)Nc3ccc(F)c(Cl)c3)ccc(F)c21)OCc1nnco1` [Compound 231, O-(1,3,4-oxadiazol-2-yl)methyl, N-(S)-(4-((3-chloro-4-fluorophenyl)carbamoyl)-7-fluoro-2,3-dihydro-1H-inden-1-yl) carbamate], the EC50 worked out at 130 nM. On to `CCS(=O)(=O)N[C@H]1CCc2c(C(=O)Nc3ccc(F)c(Cl)c3)ccc(F)c21` [Compound 232, (S)—N-(3-Chloro-4-fluorophenyl)-1-(ethylsulfonamido)-7-fluoro-2,3-dihydro-1H-indene-4-carboxamide], for which, under setting [1], the EC50 stood at 240 nM. The same measure, in the same setting: the value for `CCCS(=O)(=O)N[C@H]1CCc2c(C(=O)Nc3ccc(F)c(Cl)c3)ccc(F)c21` [Compound 233, (S)—N-(3-Chloro-4-fluorophenyl)-7-fluoro-1-(propylsulfonamido)-2,3-dihydro-1H-indene-4-carboxamide] was 330 nM; that for `CC(C)CS(=O)(=O)N[C@H]1CCc2c(C(=O)Nc3ccc(F)c(Cl)c3)ccc(F)c21` [Compound 234, (S)—N-(3-Chloro-4-fluorophenyl)-7-fluoro-1-((2-methylpropyl)sulfonamido)-2,3-dihydro-1H-indene-4-carboxamide] was 340 nM. Still for that read-out and setting: the value for `CNC(=O)NC1c2c(F)ccc(C(=O)Nc3ccc(F)c(Cl)c3)c2CC1OC` (stereo not drawn) [Compound 235, N-(3-chloro-4-fluorophenyl)-7-fluoro-2-methoxy-1-(3-methylureido)-2,3-dihydro-1H-indene-4-carboxamide] was 4500 nM. On the same count and under the same terms, in the case of `COC(=O)NC1c2c(F)ccc(C(=O)Nc3ccc(F)c(Cl)c3)c2CC1OC` (stereo not drawn) [Compound 236, O-methyl, N-(4-((3-chloro-4-fluorophenyl)carbamoyl)-7-fluoro-2-methoxy-2,3-dihydro-1H-inden-1-yl)carbamate] it was 340 nM; in that of `CC(C)NS(=O)(=O)N[C@H]1CCc2c(C(=O)Nc3ccc(F)c(Cl)c3)ccc(F)c21` [Compound 237, (S)-N-(3-chloro-4-fluorophenyl)-7-fluoro-1-((N-isopropylsulfamoyl)amino)-2,3-dihydro-1H-indene-4-carboxamide], 580 nM; in that of `CC(C)S(=O)(=O)N[C@H]1CCc2c(C(=O)Nc3ccc(F)c(Cl)c3)ccc(F)c21` [Compound 238, (S)—N-(3-Chloro-4-fluorophenyl)-7-fluoro-1-((1-methylethyl)sulfonamido)-2,3-dihydro-1H-indene-4-carboxamide], 190 nM. Consider `O=C(Nc1ccc(F)c(Cl)c1)c1ccc(F)c2c1CC[C@@H]2NS(=O)(=O)C1CCCC1` [Compound 239, (S)—N-(3-Chloro-4-fluorophenyl)-1-(cyclopentanesulfonamido)-7-fluoro-2,3-dihydro-1H-indene-4-carboxamide], for which, under setting [1], the EC50 worked out at 240 nM. Same read-out and setting: the value for `O=C(Nc1ccc(F)c(Cl)c1)c1ccc(F)c2c1CC[C@@H]2NS(=O)(=O)C1CCCCC1` [Compound 240, (S)—N-(3-Chloro-4-fluorophenyl)-1-(cyclohexanesulfonamido)-7-fluoro-2,3-dihydro-1H-indene-4-carboxamide] was 510 nM; that for `CNC(=O)NC1CC(C)(C)c2c(C(=O)Nc3ccc(F)c(Cl)c3)ccc(F)c21` (stereo not drawn) [Compound 241, N-(3-chloro-4-fluorophenyl)-7-fluoro-3,3-dimethyl-1-(3-methylureido)-2,3-dihydro-1H-indene-4-carboxamide] was 24000 nM. Same read-out and setting: in the case of `O=C(Nc1ccc(F)c(Cl)c1)c1cccc2c1CC[C@@H]2NS(=O)(=O)NC1CC1` [Compound 242, (S)-N-(3-chloro-4-fluorophenyl)-1-((N-cyclopropylsulfamoyl)amino)-2,3-dihydro-1H-indene-4-carboxamide] it was 570 nM; in that of `O=C(Nc1ccc(F)c(Cl)c1)c1ccc(F)c2c1CC[C@@H]2NS(=O)(=O)NC1CC1` [Compound 243, (S)-N-(3-chloro-4-fluorophenyl)-1-((N-cyclopropylsulfamoyl)amino)-7-fluoro-2,3-dihydro-1H-indene-4-carboxamide], 160 nM.

For the compound `COC(=O)NC1c2c(F)ccc(C(=O)Nc3ccc(F)c(F)c3)c2CC1OC` (stereo not drawn) [Compound 244, O-methyl, N-(4-((3,4-difluorophenyl)carbamoyl)-7-fluoro-2-methoxy-2,3-dihydro-1H-inden-1-yl) carbamate], the EC50 turned out to be 2000 nM. With `CNC(=O)NC1c2c(F)ccc(C(=O)Nc3ccc(F)c(F)c3)c2CC1OC` (stereo not drawn) [Compound 245, N-(3,4-difluorophenyl)-7-fluoro-2-methoxy-1-(3-methylureido)-2,3-dihydro-1H-indene-4-carboxamide], the EC50 under setting [1] turned out to be 4900 nM. Still for that read-out and setting: in the case of `COC1Cc2c(C(=O)Nc3ccc(F)c(F)c3)ccc(F)c2C1NC(=O)OCc1ccccn1` (stereo not drawn) [Compound 246, O-pyridin-2-ylmethyl, N-(4-((3,4-difluorophenyl)carbamoyl)-7-fluoro-2-methoxy-2,3-dihydro-1H-inden-1-yl)carbamate] it was 2700 nM. Same read-out and setting: in the case of `COC1Cc2c(C(=O)Nc3ccc(F)c(Cl)c3)ccc(F)c2C1NC(=O)OCc1ccccn1` (stereo not drawn) [Compound 247, O-pyridin-2-ylmethyl, N-(4-((3-chloro-4-fluorophenyl)carbamoyl)-7-fluoro-2-methoxy-2,3-dihydro-1H-inden-1-yl)carbamate] it was 680 nM.
